{"source": "patent US12544392B2", "about": "“Treatment of adenovirus infection or disease associated with adenovirus infection” (SymBio Pharmaceuticals Limited, priority 2023, dated 2026)", "key": {"[1]": {"test_system": "adenovirus (AdV)", "experiment": "Human clinical study of once-weekly IV BCV (Example 4): viral load of AdV in plasma", "assay_type": "in vivo", "settings": "cohorts 4-6: 0.4, 0.6 or 0.8 mg/kg (20, 30 or 40 mg/dose if body weight ≥50 kg) IV once weekly", "protocol": "A human clinical study on the treatment of AdV infectious disease is conducted according to the following procedure. Patients aged 2 months or older who have asymptomatic AdV infection or AdV disease and have an underlying immunocompromised state, including hematopoietic stem cell transplant recipients before the immune reconstitution by the graft cells is achieved, organ transplant recipients on medication with an immunosuppressant, and patients with immunodeficiency syndrome. […] For patients who, at the physician's discretion, are assessed as being at high risk for AdV infection/recurrence of disease, the treatment period may be extended for up to 10 weeks, even after the 4-week treatment period is completed, if the AdV is not detected by the two most recent consecutive assays with an interval of 3 days at least. […] Adverse events are evaluated according to the National Cancer Institute Common Terminology Criteria for Adverse Events (NCI CTCAE) version 5.0 (grade 1-5). […]"}, "[2]": {"test_system": "adenovirus (AdV)", "experiment": "Analysis of AdV content in stool of patients by quantitative PCR", "assay_type": "in vivo, human", "settings": "for patients in whom AdV content in stool was reduced to ND during the study period: ND = not detected", "source_text": "In the clinical study of Example 1, the AdV contents in the stools of patients were examined. […] In the figure, D means detected, ND means not detected, and NP means not performed. A quantitative PCR method was used to analyze AdV contents."}}, "data": [{"smiles": "CCCCCCCCCCCCCCCCOCCCOP(=O)(O)CO[C@H](CO)Cn1ccc(N)nc1=O", "note": "[BCV, [(2S)-1-(4-amino-2-oxopyrimidin-1-yl)-3-hydroxypropan-2-yl]oxymethyl-(3-hexadecoxypropoxy)phosphinic acid]", "values": [{"measurement": "levels of viral load of AdV during the study period", "setting": "[1]", "result": "reaches below the LOD"}, {"measurement": "patients in whom AdV content in stool was reduced to ND during the study period", "setting": "[2]; cohort 2: 0.3 mg/kg IV twice weekly", "result": "2 of 9"}, {"measurement": "cases reduced to ND in which AdV was detected in stool in the following week", "setting": "[2]; cohort 2: 0.3 mg/kg IV twice weekly, of the two cases", "result": "one"}, {"measurement": "patients in whom AdV content in stool was reduced to ND during the study period", "setting": "[2]; cohort 3: 0.4 mg/kg IV twice weekly", "result": "5 of 8"}]}]}
